One test addresses T1, human 11β-HSD1 (Homo sapiens, UniProt P28845).
T1 construct: The obtained PCR products of about 0.9 kbp, 1.2 kbp, and 0.9 kbp were subcloned into an expression vector pcDNA3.1+/Zeo; made in house
The test can be described thus: Assay of enzyme inhibitory activity, human 11β-HSD1 (lysate of stably expressing HEK293 cells, cortisol ELISA). The class given is biochemical. The following applies: Table 1; human 11β-HSD1, cell lysate, 100 nmol/L substrate, 37° C. 1 hour. The method, then:
(§1) Human 11β-HSD1-, human 11β-HSD2- and mouse 11β-HSD1-inhibitory effect • 1. Human 11β-HSD1-, Human 11β-HSD2- and Mouse 11β-HSD1-Gene Clonings and Establishment of Stably Expressing Cells
(§2) Human 11β-HSD1-, human 11β-HSD2-, and mouse 11β-HSD1-gene clonings were conducted using as a template a reverse transcription product of human-liver RNA, human-kidney RNA (CELL APPLICATIONS), and mouse-kidney RNA respectively, by means of PCR cloning with reference to nucleotide sequences of Genbank Accession Nos. NM_005525, NM_000196, and NM_008288. The obtained PCR products of about 0.9 kbp, 1.2 kbp, and 0.9 kbp were subcloned into an expression vector pcDNA3.1+/Zeo (Invitrogen).
(§3) Human 11β-HSD1- and human 11β-HSD2-expressing vectors were transfected into human kidney-derived cell line, HEK293 cells, using a transfection reagent, jet PEI (Funakoshi). Mouse 11β-HSD1 was transfected to Chinese hamster ovary-derived cell line, CHO-K1 cells. Selection was conducted with 200-400 μg/mL of zeocine (Invitrogen) to provide stably expressing-cell clones. The stably expressing cells were suspended in buffer solution A (20 mmol/L Tris-HCl, pH 7.4, 250 mmol/L sucrose, 1 mmol/L EGTA, 1 mmol/L EDTA, 1 mmol/L MgCl2), sonicated, and then stored at −80° C. • 2. Assay of Enzyme Inhibitory Activity
(§4) An enzymatic reaction was conducted using a polystyrene 96-well plate. Each well was added with 1 μL of a test agent dissolved in DMSO and then diluted (0.003 to 3 mmol/L), and further added with 10 μL of cell lysate diluted to a concentration of 0.1 mg/mL to 0.4 mg/mL. Next, 90 μL of buffer solution A containing substrate (100 nmol/L cortisone or cortisol) and coenzyme (400 μmol/L NADPH or NAD+) was added and the mixture was incubated at 37° C. for 1 hour. The enzymatic reaction was stopped by treating at 95° C. for 3 minutes. Cortisol that was present in the reaction solution was determined by a competitive ELISA shown below.
(§5) Anti-rabbit IgG antibody (Chemi-con) diluted to 2 μg/mL with carbonate buffer solution (pH 9.6) was added in 100 μL each to a 96-well immuno plate (Nunc) and immobilized by an incubation at 4° C. overnight. 50 μL of enzymatic reaction solution was put onto the plates, and further, anti-cortisol antibody (Cosmo Bio) and HRP-labeled cortisol (Cosmo Bio), diluted with buffer solution B (25 mmol/L Tris-HCl pH 7.4, 137 mmol/L NaCl, 2.68 mmol/L KCl), were added in 50 μL respectively and incubated at 4° C. overnight. After washed three times with buffer solution B containing 0.05% Tween 20, the plates were allowed to develop color by adding 100 μL of color reagent, TMB (Moss). The color reaction was stopped by 25 μL of 1 mol/L sulfuric acid and the absorbance was determined at 450 nm with a microplate reader (Molecular Device, VersaMax).
The values of human 11β-HSD1, human 11β-HSD2, and mouse 11β-HSD1 activities were subtracted from 100, and the resultant values were regarded as the respective 11β-HSD inhibition rates of example compounds. For each example compound, the value of 50% inhibitory concentration (IC50) was calculated from 11β-HSD inhibition rates at plural concentrations, for 11β-HSD1 and activities.

A further test has as its target T2, human 11β-HSD2 (Homo sapiens, UniProt P80365).
T2 construct: The obtained PCR products of about 0.9 kbp, 1.2 kbp, and 0.9 kbp were subcloned into an expression vector pcDNA3.1+/Zeo; made in house
T2 sequence (P80365 1-405): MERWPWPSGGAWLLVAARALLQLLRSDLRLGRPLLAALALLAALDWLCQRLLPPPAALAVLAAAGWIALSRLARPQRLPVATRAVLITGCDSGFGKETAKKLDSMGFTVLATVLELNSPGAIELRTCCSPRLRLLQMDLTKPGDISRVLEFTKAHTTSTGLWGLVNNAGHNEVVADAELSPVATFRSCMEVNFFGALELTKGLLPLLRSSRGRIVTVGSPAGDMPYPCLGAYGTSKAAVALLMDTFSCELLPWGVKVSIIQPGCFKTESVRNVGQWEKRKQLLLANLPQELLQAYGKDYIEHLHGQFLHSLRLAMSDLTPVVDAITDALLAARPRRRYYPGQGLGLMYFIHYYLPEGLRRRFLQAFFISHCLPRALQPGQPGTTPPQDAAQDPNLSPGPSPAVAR
Kind of test: Assay of enzyme inhibitory activity, human 11β-HSD2 (lysate of stably expressing HEK293 cells, cortisol ELISA). The class given is biochemical. The settings on record: Table 1; human 11β-HSD2, cell lysate, 100 nmol/L substrate, 37° C. 1 hour. The protocol:
as §1, §2, §3, §4
as §5, with “VersaMax). […]” for “VersaMax).”

The text below walks through data of patent publication US20100022572A1, “NOVEL SPIRO COMPOUND AND MEDICINE COMPRISING THE SAME” (KOWA COMPANY, LTD., priority 2008, published 2010).

Bounds are passed on as bounds.

T1 sequence (P28845 whole entry): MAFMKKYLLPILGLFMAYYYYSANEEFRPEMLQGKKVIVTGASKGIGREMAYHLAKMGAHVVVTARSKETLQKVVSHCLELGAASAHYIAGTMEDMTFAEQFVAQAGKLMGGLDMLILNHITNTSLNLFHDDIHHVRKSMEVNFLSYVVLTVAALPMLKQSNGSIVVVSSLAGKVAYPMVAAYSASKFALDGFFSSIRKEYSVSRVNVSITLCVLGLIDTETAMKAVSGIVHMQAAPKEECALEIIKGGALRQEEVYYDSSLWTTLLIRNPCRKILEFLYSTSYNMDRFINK

Take `O=C(COc1ccccc1C(F)(F)F)N1CCC2(C=Cc3ccccc32)CC1` [Example 1, 1-[spiro(indene-1,4′-piperidine)-1′-yl]-2-[2-(trifluoromethyl)phenoxy]ethanone]: the IC50 against human 11β-HSD1 is 0.029 µM; against human 11β-HSD2, above 30 µM. The corresponding values for `CCc1ccccc1OCC(=O)N1CCC2(C=Cc3ccccc32)CC1` [Example 3, 2-(2-ethylphenoxy)-1-[spiro(indene-1,4′-piperidine)-1′-yl]ethanone] are 0.72 µM and above 30 µM. The like results for `O=C(COc1ccccc1I)N1CCC2(C=Cc3ccccc32)CC1` [Example 4, 2-(2-iodophenoxy)-1-[spiro(indene-1,4′-piperidine)-1′-yl]ethanone] were, in that order, 0.11 µM and above 30 µM.

Regarding `O=C(COc1ccccc1C(F)(F)F)N1CCC2(CCc3ccccc32)CC1` [Example 10, 1-[2,3-dihydrospiro(indene-1,4′-piperidine)-1′-yl]-2-[2-(trifluoromethyl)phenoxy]ethanone], on human 11β-HSD1, it took 0.025 µM to reach half-maximal inhibition (IC50).

Consider `O=C(COc1ccccc1C(F)(F)F)N1CCC2(CC1)c1ccccc1CC2O` (centres unmarked) [Example 11, 1-[2-hydroxy-2,3-dihydrospiro(indene-1,4′-piperidine)-1′-yl]-2-[2-(trifluoromethyl)phenoxy]ethanone], for which, at human 11β-HSD1, the IC50 came out at 0.23 µM. On to `O=C(COc1ccccc1C(F)(F)F)N1CCC2(CC1)C(=O)Cc1ccccc12` [Example 12, 1′-[2-[2-(trifluoromethyl)phenoxy]acetyl]spiro(indene-1,4′-piperidine)-2(3H)-one], for which the half-maximal inhibitory concentration (IC50) was 0.077 µM against human 11β-HSD1 and above 30 µM at human 11β-HSD2. In turn, `O=C1CC2(CCN(C(=O)COc3ccccc3C(F)(F)F)CC2)c2ccccc21` [Example 13] yielded an IC50 against human 11β-HSD1 of 1 µM.

`CC1=Cc2ccccc2C12CCN(C(=O)COc1ccccc1C(F)(F)F)CC2` [Example 16, 1-[2-methylspiro(indene-1,4′-piperidine)-1′-yl]-2-[2-(trifluoromethyl)phenoxy]ethanone]: the IC50 at human 11β-HSD1 was determined as 0.043 µM.

`CCC1=Cc2ccccc2C12CCN(C(=O)COc1ccccc1C(F)(F)F)CC2` [Example 17, 1-[2-ethylspiro(indene-1,4′-piperidine)-1′-yl]-2-[2-(trifluoromethyl)phenoxy]ethanone] came in with an IC50 on human 11β-HSD1 of 0.048 µM. Still for that read-out and setting: next, `CCCC1=Cc2ccccc2C12CCN(C(=O)COc1ccccc1C(F)(F)F)CC2` [Example 18, 1-[2-propylspiro(indene-1,4′-piperidine)-1′-yl]-2-[2-(trifluoromethyl)phenoxy]ethanone]: 0.24 µM; `CC(C)C1=Cc2ccccc2C12CCN(C(=O)COc1ccccc1C(F)(F)F)CC2` [Example 19, 1-[2-isopropylspiro(indene-1,4′-piperidine)-1′-yl]-2-[2-(trifluoromethyl)phenoxy]ethanone]: 0.34 µM; `O=C(COc1ccccc1C(F)(F)F)N1CCC2(CC1)C(C1CC1)=Cc1ccccc12` [Example 20, 1-[2-cyclopropylspiro(indene-1,4′-piperidine)-1′-yl]-2-[2-(trifluoromethyl)phenoxy]ethanone]: 0.088 µM. Still for that read-out and setting: next, `O=C(COc1ccccc1C(F)(F)F)N1CCC2(CC1)C(Cl)=Cc1ccccc12` [Example 22, 1-[2-chlorospiro(indene-1,4′-piperidine)-1′-yl]-2-[2-(trifluoromethyl)phenoxy]ethanone]: 0.03 µM; `O=C(COc1ccccc1C(F)(F)F)N1CCC2(CC1)C(Br)=Cc1ccccc12` [Example 23, 1-[2-bromospiro(indene-1,4′-piperidine)-1′-yl]-2-[2-(trifluoromethyl)phenoxy]ethanone]: 0.049 µM; `CC1=CC2(CCN(C(=O)COc3ccccc3C(F)(F)F)CC2)c2ccccc21` [Example 24, 1-[3-methylspiro(indene-1,4′-piperidine)-1′-yl]-2-[2-(trifluoromethyl)phenoxy]ethanone]: 0.066 µM. In turn, `CC1Cc2ccccc2C12CCN(C(=O)COc1ccccc1C(F)(F)F)CC2` (centres unmarked) [Example 25, 1-[2-methyl-2,3-dihydrospiro(indene-1,4′-piperidine)-1′-yl]-2-[2-(trifluoromethyl)phenoxy]ethanone] came in with an IC50 at human 11β-HSD1 of 0.12 µM.
